{"source": "patent US20070009509A1", "about": "“Antibody against nox1 polypeptide, method of diagnosing cancer with the use of nox1 gene and method of screening cancer growth inhibitor” (priority 2003, published 2007)", "key": {"K-Ras-NRK cells": {"system": "K-Ras-NRK cells", "experiment": "Morphology of K-Ras-NRK cells treated overnight with inhibitors", "format": "cell-based, rat", "conditions": "20 μM DPI, 30 μM PD98059, 10 mM n-acetyl cysteine (data not shown), FIG. 13", "procedure": "Diphenylene iodonium (DPI), a Nox1 inhibitor, was used to examine the influence of Nox1 gene expression on the morphologies of the cells transformed with mutant Ras. Namely, K-Ras-NRK cells and NRK cells were cultured overnight at 37° C. in a medium containing 20 μM DPI or 30 μM PD98059 under a 5% CO2-containing moisture environment to observe morphological changes."}, "[1]": {"system": "Nox1 expression in the K-Ras-NRK cells", "experiment": "Nox1 expression in K-Ras-NRK cells by real-time quantitative polymerase chain reaction", "format": "cell-based, rat", "conditions": "PD98059 20 μM, 100 μM, treated for 12 hours; FIG. 1(a)", "procedure": "At first, rat kidney (NRK) cells and K-Ras-NRK cells (Kirstein murine sarcoma virus-transformed NRK cells) were prepared. The K-Ras-NRK cells were purchased from ATCC.\nThe presence or absence of Nox1 expression in the rat kidney (NRK) cells and the K-Ras-NRK cells was initially detected by real-time quantitative polymerase chain reaction. The real-time quantitative polymerase chain reaction used a forward primer of SEQ ID NO: 15, a reverse primer of SEQ ID NO: 16, and a TaqMan MGB probe of SEQ ID NO: 17.\nThe real-time quantitative polymerase chain reaction was performed using ABI Prism 7700 (Applied Biosystems) under reaction conditions set to defaults. Analytical values were standardized using rRNA 18S.\n(§1) A series of experiments were performed for analyzing the downstream region of a Ras signaling pathway of Nox1 gene expression elevated by mutant Ras gene. In Examples 1 and 2, the cells were treated for 12 hours with PD98059 (PD: 20 μM, 100 μM), an MAPKK inhibitor, to analyze Nox1 expression in the K-Ras-NRK cells and serum- and EGF-induced Nox1 expression by real-time quantitative polymerase chain reaction."}, "[2]": {"system": "Nox1 gene expression in NIH3T3 cells", "experiment": "Serum- and EGF-induced Nox1 expression in NIH3T3 cells by real-time quantitative polymerase chain reaction", "format": "cell-based", "procedure": "NIH3T3 cells cultured overnight under serum-free conditions were treated mitogeniclally with serum (30%) or 50 ng/ml epidermal growth factor (EGF) and then analyzed by real-time quantitative polymerase chain reaction. As a result, Nox1 gene expression was increased to 6 to 20 times within 12 hours from the initiation of the culture, as shown in FIGS. 1(c) and (d). That is, Nox1 gene expression is associated with factors that promote cell growth. This is consistent with the reports saying that both platelet-derived growth factor (PDGF) and angiotensin II induce superoxide formation and Nox1 gene expression in vascular smooth muscle cells (1 and 4).\nas §1"}, "[3]": {"system": "Nox1 expression in the H-Ras-NIH3T3 cells", "experiment": "Control experiment: Nox1 expression in H-Ras-NIH3T3 cells", "format": "cell-based", "conditions": "wortmannin 100 nM; data not shown"}, "[4]": {"system": "superoxide production in K-Ras-NRK cells", "experiment": "Superoxide production by NBT reduction analysis", "format": "cell-based, rat", "conditions": "40 units of superoxide dismutase, 37° C., 8 minutes", "procedure": "The present inventors measured superoxide production by NBT reduction analysis using the transformed cells of Example 4 in order to evaluate the role of Nox1 in superoxide production induced by mutant Ras. In the present example, the method of Suh et al. was used in the NBT (nitroblue tetrazolium) analysis (1). Namely, 0.2 ml of a Hanks solution containing 0.25% NBT was prepared with or without 40 units of superoxide dismutase (SOD), a reactive oxygen-digesting enzyme, in which 2×10^5 cells were in turn suspended and treated at 37° C. for 8 minutes. The treated cells were separated by low-speed centrifugation and solubilized by the addition of 0.5 ml of pyridine. Absorbance at 510 nm was measured to quantify a decrease in NBT (extinction coefficient of 11,000/M/cm). The obtained data was shown in FIG. 6 with +/−s.e.m. from 3 measurements."}}}
{"compound": "c1ccc2c(c1)[I+]c1ccccc1-2", "note": "[DPI, Diphenylene iodonium]", "values": [{"measurement": "morphological changes of K-Ras-NRK cells", "setting": "K-Ras-NRK cells", "result": "transiently assumed a flat shape that was close to the shape of the NRK cells"}]}
{"compound": "COc1cccc(-c2cc(=O)c3ccccc3o2)c1N", "note": "[PD98059]", "values": [{"measurement": "morphological changes of K-Ras-NRK cells", "setting": "K-Ras-NRK cells", "result": "such morphological changes were also observed"}, {"measurement": "Nox1 expression in the K-Ras-NRK cells", "setting": "[1]", "result": "inhibited by the PD98059 concentration-dependently"}, {"measurement": "EGF-induced Nox1 expression", "setting": "[2]; 20 μM PD98059, 50 ng/ml EGF, FIG. 1(d)", "result": "inhibited"}, {"measurement": "serum-induced Nox1 expression", "setting": "[2]; 20 μM PD98059, serum (30%), FIG. 1(c)", "result": "inhibited"}]}
{"compound": "CC(=O)N[C@@H](CS)C(=O)O", "note": "[n-acetyl cysteine]", "values": [{"measurement": "morphological changes of K-Ras-NRK cells", "setting": "K-Ras-NRK cells", "result": "transiently assumed a flat shape that was close to the shape of the NRK cells"}]}
{"compound": "COC[C@H]1OC(=O)c2coc3c2[C@@]1(C)C1=C(C3=O)[C@@H]2CCC(=O)[C@@]2(C)C[C@H]1OC(C)=O", "note": "[wortmannin]", "values": [{"measurement": "increase in Nox1 expression in the H-Ras-NIH3T3 cells", "setting": "[3]", "result": "did not inhibit"}]}
{"compound": "superoxide dismutase", "values": [{"measurement": "NBT reduction increased in K-Ras-NRK and K-Ras-NRK/neg-1", "setting": "[4]", "result": "inhibited"}]}
